How the values were obtained:
[1] = system: Annual Rye; assay: Laboratory trial: Annual Rye seeds in trays of potting soil, sprayed every other day; format: in vivo; details: averages of 74 plants per tray after 1 week; for Root Length, percent inc (versus sugar solution): increase over sugar solution (2.9 cm); for Blade Length, percent increase (versus sugar solution): increase over sugar solution (6.3 cm); for Blade Length / Root Length: ingredient added to standard sugar solution (Ni 0.003% w/w, Co 0.003% w/w, nitrogen-15 0.00001% w/w), spray 12 ml per square meter every other day
Description: Some characteristics of the plant growth regulating composition according to the invention are illustrated by the following examples. The laboratory trial involved planting Annual Rye seeds in trays of commercially available potting soil. The seed density on the trays was 358 grams per square meter. The volume of each spray was 12 ml per square meter after the grass emerged. The spray frequency was every other day. The following ingredients were added at these concentrations to a standard sugar solution: Ni 0.003% w/w (Nickel), Co 0.003% w/w (cobalt) and nitrogen-15 0.00001% w/w.

[2] = system: Common Bermuda; assay: Trial on turf, sprayed once with nitrogen-15 spray solutions; format: in vivo
Description: A trial on turf was conducted on Common Bermuda. The turf was sprayed once with spray solutions that contained four concentrations of nitrogen-15 ammonium sulfate. The concentrations ranged from: 0.001% though 0.004% w/w. The nitrogen-15 was mixed with a sugar solution as in the laboratory trial.

Compound | Root Length, percent inc (versus sugar solution) [1] [%] | Blade Length, percent increase (versus sugar solution) [1] [%] | Blade Length [1] [cm] | Root Length [1] [cm] | visual color of turf plot ([2]; plot sprayed once with 0.004% w/w in sugar solution, four concentrations 0.001% through 0.004% w/w compared) | Percent increase in leaf length ([2]; turf sprayed once, 0.001% through 0.004% w/w in sugar solution)
[Co] [Co, cobalt] | 41.40 | 11.10 | 7.0 | 4.1 | – | –
[Ni] [Ni, Nickel] | 41.40 | 15.90 | 7.3 | 4.1 | – | –
O=S(=O)(O)O.[15NH3].[15NH3] [nitrogen-15 ammonium sulfate] | – | – | – | – | darkest green | the same as the laboratory trial
Nitrogen-15 | 20.70 | 25.40 | 7.9 | 3.5 | – | –

— patent US10631541B1, “Nitrogen-15 isotope as a plant growth regulator” (Floratine Products Group, Inc, priority 2016, dated 2020)
